# Experimental data: US8987314B2, “Amide, urea or sulfone amide linked benzothiazole inhibitors of endothelial lipase” (Bristol-Myers Squibb Company, priority 2012, dated 2015)
# Like-named read-outs stand apart in the source and are kept apart here.
# Tests used:
# [1] = biological target: hepatic lipase (HL) (Homo sapiens (Human), UniProt P11150); experiment: HL assay: hepatic lipase activity with fluorescent substrate A10070 in DMPG vesicles; format: biochemical
# Protocol: (§1) Endothelial lipase (EL) and hepatic lipase (HL) activities were measured using a fluorescent substrate, A10070, (Invitrogen, CA) doped into an artificial vesicle containing DMPG (Avanti Polar Lipids) as the excipient. Vesicles were prepared by combining 571 μL of 29 mM DMPG in a 1:1 mixture of MeOH and CHCl3 with 2000 μL of 1 mM A10070 in a 1:1 mixture of MeOH and CHCl3. The mixture was dried under nitrogen in multiple vials then resuspended in 20 mL total volume of 50 mM HEPES pH 8.0 buffer containing 50 mM NaCl and 0.2 mM EDTA. The sample was allowed to sit at room temperature for 15 min and then was sonicated 3×4 mins on ice with a Branson Sonicator using duty cycle 1. This preparation provides vesicles with a mole fraction of 0.11 for the FRET substrate.
# (§2) The enzymatic assay was measured using 384-well white Optiplates. Each well contained 20 μL of assay buffer (50 mM HEPES pH 8.0, 50 mM NaCl and 1 mM CaCl2) and 0.25 μL of a DMSO solution containing a compound of interest. EL or HL (10 μL) was added and allowed to incubate with the compound for 30 min at 37° C. The source of EL was conditioned media obtained from HT-1080 cells that were transformed using RAGE technology (Athersys) to overexpress endogenous EL, and HL was partially purified from conditioned media obtained from COS cells overexpressing HL. The reaction was started by the addition of 10 μL of a 1:10 dilution of vesicles. The final total reaction volume was […]. The reaction rates were measured on a Gemini plate reader with an excitation wavelength of 490 nm and an emission wavelength of 530 nm. Readings were taken over a period of 60 minutes, and the slope between 300 and 900 secs of the readout was used to calculate the rate of the reaction.
# [2] = biological target: Endothelial lipase (EL) (Homo sapiens (Human), UniProt Q9Y5X9); experiment: EL assay: endothelial lipase activity with fluorescent substrate A10070 in DMPG vesicles; format: biochemical
# Endothelial lipase (EL), sequence (Q9Y5X9 21-500): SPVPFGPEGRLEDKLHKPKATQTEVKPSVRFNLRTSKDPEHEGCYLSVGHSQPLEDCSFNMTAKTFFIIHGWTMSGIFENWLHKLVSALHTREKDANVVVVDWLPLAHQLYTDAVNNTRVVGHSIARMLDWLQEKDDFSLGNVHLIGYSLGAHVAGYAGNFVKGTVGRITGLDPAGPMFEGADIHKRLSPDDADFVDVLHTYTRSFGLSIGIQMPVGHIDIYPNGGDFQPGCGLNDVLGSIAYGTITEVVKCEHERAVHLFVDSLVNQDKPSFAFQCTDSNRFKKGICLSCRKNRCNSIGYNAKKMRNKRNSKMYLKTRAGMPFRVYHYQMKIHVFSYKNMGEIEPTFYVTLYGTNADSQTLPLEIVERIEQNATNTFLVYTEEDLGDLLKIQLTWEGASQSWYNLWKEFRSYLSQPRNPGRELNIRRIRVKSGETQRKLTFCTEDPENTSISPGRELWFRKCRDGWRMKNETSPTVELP
# Protocol: as §1, §2
# [3] = EL from conditioned media of HT-1080 cells, 30 min incubation with compound at 37° C., A10070/DMPG vesicles
# hepatic lipase (HL), sequence (P11150 23-499, species assumed): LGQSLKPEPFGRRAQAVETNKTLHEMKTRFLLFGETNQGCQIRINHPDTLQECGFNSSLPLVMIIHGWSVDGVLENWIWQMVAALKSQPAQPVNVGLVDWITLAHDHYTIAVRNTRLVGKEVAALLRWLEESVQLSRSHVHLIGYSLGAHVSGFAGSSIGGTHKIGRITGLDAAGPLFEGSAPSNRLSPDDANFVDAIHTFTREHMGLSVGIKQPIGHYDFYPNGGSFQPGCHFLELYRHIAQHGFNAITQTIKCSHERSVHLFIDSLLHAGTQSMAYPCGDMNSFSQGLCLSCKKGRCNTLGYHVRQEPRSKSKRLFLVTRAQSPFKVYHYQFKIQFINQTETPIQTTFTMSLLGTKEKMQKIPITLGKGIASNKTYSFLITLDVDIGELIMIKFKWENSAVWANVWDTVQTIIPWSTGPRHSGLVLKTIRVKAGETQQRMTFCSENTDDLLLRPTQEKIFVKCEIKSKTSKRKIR
SMILES,IC50 [1] [nM],IC50 [2] [nM],"IC50 [2, 3] [nM]"
"CS(=O)(=O)C(C(=O)NCCS(N)(=O)=O)c1nc2cc(-c3ccnc(F)c3)ccc2s1 (stereo not shown) [Example B95, 2-[5-(2-fluoro-4-pyridinyl)-1,3-benzothiazol-2-yl]-2-(methylsulfonyl)-N-(2-sulfamoylethyl)acetamide]",70,< 10,–
"CS(=O)(=O)C(C(=O)NCCS(N)(=O)=O)c1nc2ccc(-c3ccc(-c4ncco4)cc3)cc2s1 (stereo not shown) [Example B224, 2-methanesulfonyl-2-{6-[4-(1,3-oxazol-2-yl)phen-yl]-1,3-benzothiazol-2-yl}-N-(2-sulfamoylethyl)a-cetamide]",10,8.4,–
"COCCS(=O)(=O)C(C(=O)NCCS(N)(=O)=O)c1nc2ccc(-c3cncnc3)cc2s1 (stereo not shown) [Example B141, 2-((2-methoxyethyl)sul-fonyl)-2-(6-(5-pyrimidinyl)-1,3-benzothiazol-2-yl)-N-(2-sulfamoylethyl)acetamide]",2210,14.7,–
"NS(=O)(=O)CCNC(=O)C(c1nc2ccc(-c3ccccc3)cc2s1)S(=O)(=O)Cc1ccc(F)cc1 (stereo not shown) [Example B119, 2-((4-fluorobenzyl)sul-fonyl)-2-(6-phenyl-1,3-benzothiazol-2-yl)-N-(2-sulfamoylethyl)acetamide]",11,< 10,–
"NS(=O)(=O)CCNC(=O)C(c1nc2ccc(-c3cnn(CCN4CCOCC4)c3)cc2s1)S(=O)(=O)Cc1ccccc1 (stereo not shown) [Example B122, 2-(benzylsulfonyl)-2-(6-{1-[2-(4-morpholinyl)ethyl]-1H-pyrazol-4-yl}-1,3-benzothiazol-2-yl)-N-(2-sulfamoylethyl)acetamide]",631,44,–
"COC1CN(C(=O)c2ccc(-c3ccc4nc(C(C(=O)NCCS(N)(=O)=O)S(C)(=O)=O)sc4c3)cc2)C1 (stereo not shown) [Example B175, 2-(6-(4-((3-methoxy-1-azetidinyl)carbonyl)phen-yl)-1,3-benzothiazol-2-yl)-2-(methylsulfonyl)-N-(2-sulfamoylethyl)a-cetamide]",118,< 10,–
"COCCS(=O)(=O)C(C(=O)NCCS(N)(=O)=O)c1nc2ccc(-c3ccc(C(=O)N4CCOCC4)cc3)cc2s1 (stereo not shown) [Example B100, 2-((2-methoxyethyl)sulfonyl)-2-(6-(4-(4-morpholinyl-carbonyl)phenyl)-1,3-benzothiazol-2-yl)-N-(2-sulfamoylethyl)acetamide]",1240,< 10,–
"Cc1nnc(CNC(=O)C(c2nc3cc(C)c(-c4ccccc4)cc3s2)S(C)(=O)=O)o1 (stereo not shown) [Example B82, N-((5-methyl-1,3,4-oxadiazol-2-yl)methyl)-2-(5-methyl-6-phenyl-1,3-benzothiazol-2-yl)-2-(methylsulfonyl)acetamide]",177,85,–
"CS(=O)(=O)C(C(=O)NCCS(N)(=O)=O)c1nc2ccc(-c3ccnc(Cl)c3)cc2s1 (stereo not shown) [Example B9, 2-(6-(2-chloro-4-pyridinyl)-1,3-benzothiazol-2-yl)-2-(methylsulfonyl)-N-(2-sulfamoylethyl)acetamide]",–,–,< 10
"C=CCS(=O)(=O)C(C(=O)NCCS(N)(=O)=O)c1nc2ccc(-c3ccccc3)cc2s1 (stereo not shown) [Example B2, 2-(Allylsulfonyl)-2-(6-phenylbenzo[d]thiazol-2-yl)-N-(2-sulfamoylethyl)acetamide]",–,–,< 10
"CCCC(=O)NC(C(=O)NCCS(N)(=O)=O)c1nc2ccc(-c3ccc(F)nc3)cc2s1 (stereo not shown) [Example A3, N-(1-(6-(6-fluoropyridin-3-yl)benzo[d]thiazol-2-yl)-2-oxo-2-((2-sulfamoylethyl)amino)ethyl)butyramide]",–,–,< 10
"NS(=O)(=O)CCNC(=O)C(c1nc2ccc(-c3ccc(F)nc3)cc2s1)S(=O)(=O)Cc1ccc(C(F)(F)F)cc1 (stereo not shown) [Example B6, 2-(6-(6-fluoro-3-pyridinyl)-1,3-benzothiazol-2-yl)-N-(2-sulfamoylethyl)-2-((4-(trifluoromethyl)benzyl)sulfonyl)acetamide]",–,–,< 10
"NS(=O)(=O)CCNC(=O)C(NC(=O)c1ccc(C(F)(F)F)cc1)c1nc2ccc(-c3ccc(F)nc3)cc2s1 (stereo not shown) [Example A1, N-(1-(6-(6-Fluoropyridin-3-yl)benzo[d]thiazol-2-yl)-2-oxo-2-((2-sulfamoylethyl)amino)ethyl)-4-(trifluoromethyl)benzamide]",–,–,35
"NS(=O)(=O)CCNC(=O)C(NC(=O)c1cccnc1)c1nc2ccc(-c3ccc(C(=O)N4CCOCC4)cc3)cc2s1 (stereo not shown) [Example A6, N-(1-(6-(4-(morpholine-4-carbonyl)phenyl)benzo[d]thiazol-2-yl)-2-oxo-2-((2-sulfamoylethyl)amino)ethyl)nicotinamide]",–,–,< 10
NS(=O)(=O)CCNC(=O)C(NC(=O)c1ccc(C(F)(F)F)cc1)c1nc2ccc(-c3ccc(C(=O)N4CCOCC4)cc3)cc2s1 (stereo not shown) [Example A7],–,–,< 10

# The remaining lines, values ahead:
IC50 [1] [nM],IC50 [2] [nM],"IC50 [2, 3] [nM]",SMILES
5750,50.3,–,"CS(=O)(=O)C(C(=O)NCCS(N)(=O)=O)c1nc2cc(C(=O)N3CC(F)(F)C3)ccc2s1 (stereo not shown) [Example B393, 2-[5-(3,3-difluoroazetidine-1-carbonyl)-1,3-benzothiazol-2-yl]-2-methanesulfonyl-N-(2-sulfamoylethyl)acetamide]"
607,6.4,–,"CC(C)(O)CNC(=O)c1ccc(-c2ccc3nc(C(C(=O)NCCS(N)(=O)=O)S(C)(=O)=O)sc3c2)cc1 (stereo not shown) [Example B241, N-(2-hydroxy-2-methyl-propyl)-4-(2-{methane-sulfonyl[(2-sulfamoyl-ethyl)carbamoyl]methyl}-1,3-benzothiazol-6-yl)ben-zamide]"
218,173,–,"CS(=O)(=O)C(C(=O)NCc1ccccc1S(N)(=O)=O)c1nc2ccc(-c3ccc(N4CCCCC4)cc3)cc2s1 (stereo not shown) [Example B275, 2-methanesulfonyl-2-{6-[4-(piperidin-1-yl)phenyl]-1,3-benzothiazol-2-yl}-N-[(2-sulfamoylphenyl)meth-yl]acetamide]"
74,0.5,–,"NS(=O)(=O)CCNC(=O)C(c1nc2ccc(-c3ccc(C(=O)NC4CC4)cc3)cc2s1)S(=O)(=O)Cc1ccc(OC(F)(F)F)cc1 (stereo not shown) [Example B226, N-cyclopropyl-4-(2-{[(2-sulfamoylethyl)carbamoyl][4-(trifluoromethoxy)phen-yl]methanesulfonyl-methyl}-1,3-benzothiazol-6-yl)benzamide]"
58.1,9.1,–,"NS(=O)(=O)CCNC(=O)C(c1nc2ccc(-c3ccc(C(=O)N4CCC(F)(F)C4)cc3)cc2s1)S(=O)(=O)Cc1ccc(OC(F)(F)F)cc1 (stereo not shown) [Example B324, 2-{6-[4-(3,3-difluoropyrrolidine-1-carbonyl)phen-yl]-1,3-benzothiazol-2-yl}-N-(2-sulfamoyl-ethyl)-2-{[4-(trifluoro-methoxy)phen-yl]methanesulfonyl}a-cetamide]"
1260,1.9,–,"CC1(O)CN(C(=O)c2ccc(-c3ccc4nc(C(C(=O)NCCS(N)(=O)=O)S(=O)(=O)CCC(F)(F)F)sc4c3)cc2)C1 (stereo not shown) [Example B320, 2-{6-[4-(3-hydroxy-3-methylazetidine-1-carbonyl)phenyl]-1,3-benzothiazol-2-yl}-N-(2-sulfamoylethyl)-2-(3,3,3-trifluoropropanesulfonyl)a-cetamide]"
1,3,–,"CS(=O)(=O)C(C(=O)NCCS(N)(=O)=O)c1nc2ccc(-c3ccccc3F)cc2s1 (stereo not shown) [Example B305, 2-[6-(2-fluorophenyl)-1,3-benzothiazol-2-yl]-2-methanesulfonyl-N-(2-sulfamoylethyl)acetamide]"
124,0.8,–,"COCCN(C)C(=O)c1ccc(-c2ccc3nc(C(C(=O)NCCS(N)(=O)=O)S(=O)(=O)Cc4ccc(C(F)(F)F)cc4)sc3c2)cc1 (stereo not shown) [Example B288, N-(2-methoxyethyl)-N-methyl-4-(2-{[(2-sulfamoylethyl)carbamoyl][4-(trifluoromethyl)phen-yl]methanesulfonylmethyl}-1,3-benzothiazol-6-yl)ben-zamide]"
84.9,191,–,"NS(=O)(=O)c1cccc(CNC(=O)C(c2nc3ccc(-c4ccc(C(=O)N5CCCC5)cc4)cc3s2)S(=O)(=O)Cc2ccccc2)c1 (stereo not shown) [Example B277, 2-phenylmethanesulfonyl-2-{6-[4-(pyrrolidine-1-carbonyl)phenyl]-1,3-benzothiazol-2-yl}-N-[(3-sulfamoylphenyl)methyl]a-cetamide]"
13.7,0.8,–,"CS(=O)(=O)C(C(=O)NCCS(N)(=O)=O)c1nc2cc(-c3ccccc3F)ccc2s1 (stereo not shown) [Example B352, 2-[5-(2-fluorophenyl)-1,3-benzothiazol-2-yl]-2-methanesulfonyl-N-(2-sulfamoylethyl)acetamide]"
